Where two headings read alike, the source gives them in different places.
What was measured:
Type in all cases: cell-based
[1] = system: Proteus mirabilis (PMI) isolates; assay: microbe, parasite or virus in culture; details: for MIC: Proteus mirabilis, read-out: MIC
Procedure, shortened: (§1)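 Log-phase isolates at final 5·10^5 CFU/mL in cation-adjusted Mueller-Hinton broth, incubated 16-20 h at 35° C in ambient air. MIC read visually as lowest concentration preventing growth, for compound alone and for antibacterial at each compound concentration.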

[2] = system: Enterobacter aerogenes (EAE) isolates; assay: MIC of compounds alone and combined with antibacterials, broth microdilution (CLSI); details: for MIC: Klebsiella aerogenes, read-out: MIC
Procedure, shortened: as §1

[3] = system: Escherichia coli (ECO) isolates; assay: as above
Procedure, shortened: as §1

C=CC1=C(C(=O)O)N2C(=O)[C@@H](NC(=O)/C(=N\OCC(=O)O)c3csc(N)n3)[C@H]2SC1 [FIX, Cefixime]
MIC ATB in combination ([1]; PMI UFR82, AF1 @ 4 μg/mL): <=0.25 μg/mL
MIC ATB in combination ([1]; PMI UFR82, AF1 @ 8 μg/mL): <=0.25 μg/mL
MIC ATB in combination ([1]; PMI UFR120, AF1 @ 4 μg/mL): <=0.25 μg/mL
MIC ATB in combination ([1]; PMI UFR120, AF1 @ 8 μg/mL): <=0.25 μg/mL
MIC ATB in combination ([1]; PMI UFR121, AF1 @ 4 μg/mL): <=0.25 μg/mL
MIC ATB in combination ([1]; PMI UFR121, AF1 @ 8 μg/mL): <=0.25 μg/mL
MIC ATB in combination ([1]; PMI UFR122, AF1 @ 4 μg/mL): <=0.25 μg/mL
MIC ATB in combination ([1]; PMI UFR122, AF1 @ 8 μg/mL): <=0.25 μg/mL
MIC ATB in combination ([1]; PMI UFR123, AF1 @ 4 μg/mL): <=0.25 μg/mL
MIC ATB in combination ([1]; PMI UFR123, AF1 @ 8 μg/mL): <=0.25 μg/mL
MIC ATB in combination ([1]; PMI UFR124, AF1 @ 4 μg/mL): <=0.25 μg/mL
MIC ATB in combination ([1]; PMI UFR124, AF1 @ 8 μg/mL): <=0.25 μg/mL
MIC ATB in combination ([1]; PMI UFR125, AF1 @ 4 μg/mL): <=0.25 μg/mL
MIC ATB in combination ([1]; PMI UFR125, AF1 @ 8 μg/mL): <=0.25 μg/mL
MIC ATB in combination ([1]; PMI UFR126, AF1 @ 4 μg/mL): 0.031 µg/mL
MIC ATB in combination ([1]; PMI UFR126, AF1 @ 8 μg/mL): 0.016 µg/mL
MIC ATB in combination ([1]; PMI UFR127, AF1 @ 4 μg/mL): <=0.25 μg/mL
MIC ATB in combination ([1]; PMI UFR127, AF1 @ 8 μg/mL): <=0.25 μg/mL
MIC ATB in combination ([1]; PMI UFR129, AF1 @ 4 μg/mL): <=0.25 μg/mL
MIC ATB in combination ([1]; PMI UFR129, AF1 @ 8 μg/mL): <=0.25 μg/mL
MIC ATB in combination ([1]; PMI UFR130, AF1 @ 4 μg/mL): <=0.25 μg/mL
MIC ATB in combination ([1]; PMI UFR130, AF1 @ 8 μg/mL): <=0.25 μg/mL
MIC ATB in combination ([1]; PMI UFR237, AF1 @ 4 μg/mL): <=0.25 μg/mL
MIC ATB in combination ([1]; PMI UFR237, AF1 @ 8 μg/mL): <=0.25 μg/mL
MIC ([1]; PMI UFR126, alone): 1020 µg/mL
MIC ([1]; PMI UFR127, alone): > 128 µg/mL
MIC ([1]; strain PMI UFR82 (CMY-2), ATB alone): 8 µg/mL
MIC ([1]; strain PMI UFR82 (CMY-2), CLA @ 4 μg/ml+ ATB): 4 µg/mL
MIC ([1]; strain PMI UFR120 (TEM-1, SHV-11, CTX-M-14), ATB alone): 0.5 µg/mL
MIC ([1]; strain PMI UFR120 (TEM-1, SHV-11, CTX-M-14), CLA @ 4 μg/ml+ ATB): ≤ 0.25 µg/mL
MIC ([1]; strain PMI UFR121 (TEM-1, TEM-52), ATB alone): 128 µg/mL
MIC ([1]; strain PMI UFR121 (TEM-1, TEM-52), CLA @ 4 μg/ml+ ATB): ≤ 0.25 µg/mL
MIC ([1]; strain PMI UFR122 (TEM-1, CTX-M-15), ATB alone): 1 µg/mL
MIC ([1]; strain PMI UFR122 (TEM-1, CTX-M-15), CLA @ 4 μg/ml+ ATB): ≤ 0.25 µg/mL
MIC ([1]; strain PMI UFR123 (CTX-M-1), ATB alone): 128 µg/mL
MIC ([1]; strain PMI UFR123 (CTX-M-1), CLA @ 4 μg/ml+ ATB): ≤ 0.25 µg/mL
MIC ([1]; strain PMI UFR124 (CTX-M-2), ATB alone): > 128 µg/mL
MIC ([1]; strain PMI UFR124 (CTX-M-2), CLA @ 4 μg/ml+ ATB): ≤ 0.25 µg/mL
MIC ([1]; strain PMI UFR125 (CTX-M-71), ATB alone): 0.5 µg/mL
MIC ([1]; strain PMI UFR125 (CTX-M-71), CLA @ 4 μg/ml+ ATB): ≤ 0.25 µg/mL
MIC ([1]; strain PMI UFR126 (TEM-2, PER-1), ATB alone): 1020 µg/mL
MIC ([1]; strain PMI UFR126 (TEM-2, PER-1), CLA @ 4 μg/ml+ ATB): ≤ 0.25 µg/mL
MIC ([1]; strain PMI UFR127 (VEB-1), ATB alone): > 128 µg/mL
MIC ([1]; strain PMI UFR127 (VEB-1), CLA @ 4 μg/ml+ ATB): ≤ 0.25 µg/mL
MIC ([1]; strain PMI UFR129 (TEM-1, VEB-6), ATB alone): > 128 µg/mL
MIC ([1]; strain PMI UFR129 (TEM-1, VEB-6), CLA @ 4 μg/ml+ ATB): ≤ 0.25 µg/mL
MIC ([1]; strain PMI UFR130 (CMY-2), ATB alone): 8 µg/mL
MIC ([1]; strain PMI UFR130 (CMY-2), CLA @ 4 μg/ml+ ATB): 8 µg/mL
MIC ([1]; strain PMI UFR237 (VEB-6), ATB alone): > 128 µg/mL
MIC ([1]; strain PMI UFR237 (VEB-6), CLA @ 4 μg/ml+ ATB): ≤ 0.25 µg/mL
MIC ATB in combination ([2]; EAE 49469, AF1 @ 4 μg/mL): 32 µg/mL
MIC ATB in combination ([2]; EAE 49469, AF1 @ 8 μg/mL): 16 µg/mL
MIC ATB in combination ([2]; EAE 200261, AF1 @ 4 μg/mL): 32 µg/mL
MIC ATB in combination ([2]; EAE 200261, AF1 @ 8 μg/mL): 4 µg/mL
MIC ATB in combination ([2]; EAE UFR199, AF1 @ 4 μg/mL): 1 µg/mL
MIC ATB in combination ([2]; EAE UFR199, AF1 @ 8 μg/mL): 0.25 µg/mL
MIC ATB in combination ([2]; EAE UFR201, AF1 @ 4 μg/mL): <=0.25 μg/mL
MIC ATB in combination ([2]; EAE UFR201, AF1 @ 8 μg/mL): <=0.25 μg/mL
MIC ATB in combination ([2]; EAE UFR202, AF1 @ 4 μg/mL): 16 µg/mL
MIC ATB in combination ([2]; EAE UFR202, AF1 @ 8 μg/mL): 4 µg/mL
MIC ATB in combination ([2]; EAE UFR213, AF1 @ 4 μg/mL): 1 µg/mL
MIC ATB in combination ([2]; EAE UFR213, AF1 @ 8 μg/mL): 0.5 µg/mL
MIC ([2]; EAE UFR199, alone): > 1020 µg/mL
MIC ([2]; strain EAE 49469 (AmpC), ATB alone): > 128 µg/mL
MIC ([2]; strain EAE 49469 (AmpC), CLA @ 4 μg/ml+ ATB): > 128 µg/mL
MIC ([2]; strain EAE 200261 (TEM-x, AmpC), ATB alone): > 128 µg/mL
MIC ([2]; strain EAE 200261 (TEM-x, AmpC), CLA @ 4 μg/ml+ ATB): > 128 µg/mL
MIC ([2]; strain EAE UFR199 (TEM-1b, SHV-12, KPC-2, OXA-9), ATB alone): > 1020 µg/mL
MIC ([2]; strain EAE UFR199 (TEM-1b, SHV-12, KPC-2, OXA-9), CLA @ 4 μg/ml+ ATB): 16 µg/mL
MIC ([2]; strain EAE UFR201 (TEM-1, SHV-12, CTX-M-15), ATB alone): > 128 µg/mL
MIC ([2]; strain EAE UFR201 (TEM-1, SHV-12, CTX-M-15), CLA @ 4 μg/ml+ ATB): ≤ 0.25 µg/mL
MIC ([2]; strain EAE UFR202 (TEM-24), ATB alone): > 128 µg/mL
MIC ([2]; strain EAE UFR202 (TEM-24), CLA @ 4 μg/ml+ ATB): > 128 µg/mL
MIC ([2]; strain EAE UFR213 (TEM-24), ATB alone): > 128 µg/mL
MIC ([2]; strain EAE UFR213 (TEM-24), CLA @ 4 μg/ml+ ATB): > 128 µg/mL
MIC ATB in combination [3]: >128 µg/mL
MIC ATB in combination ([3]; ECO 4133, AF1 @ 4 μg/mL): <=0.25 μg/mL
MIC ATB in combination ([3]; ECO 4133, AF1 @ 8 μg/mL): <=0.25 μg/mL
MIC ATB in combination ([3]; ECO 5302, AF1 @ 4 μg/mL): <=0.25 μg/mL
MIC ATB in combination ([3]; ECO 5302, AF1 @ 8 μg/mL): <=0.25 μg/mL
MIC ATB in combination ([3]; ECO 131119, AF1 @ 4 μg/mL): <=0.25 μg/mL
MIC ATB in combination ([3]; ECO 131119, AF1 @ 8 μg/mL): <=0.25 μg/mL
MIC ATB in combination ([3]; ECO 180070, AF1 @ 4 μg/mL): <=0.25 μg/mL

Reference: patent US20200017496A1 (priority 2017, published 2020)
